Experimental data: publication PMC6274388, “Deoxyelephantopin from Elephantopus scaber Inhibits HCT116 Human Colorectal Carcinoma Cell Growth through Apoptosis and Cell Cycle Arrest” (Molecules, 2016)

Tests used:
[1] = tested on: CCD841CoN normal colon cells; assay: MTT cytotoxicity assay on CCD841CoN normal colon cells; assay type: cell-based, human; settings: for IC50: Homo sapiens, CCD-841CoN, MTT, 72 h
Description: (§1) HCT116 human colorectal cancer cells and CCD841-CoN normal cells were obtained from the American Type Culture Collection (ATCC, Manassas, VA, USA). HCT116 cells and CCD841-CoN normal cells were cultured in RPMI-1640 and EMEM media respectively, with 10% v/v heat-inactivated fetal bovine serum (FBS), 100 µg/mL penicillin streptomycin and 50 µg/mL amphotericin B at 37 °C in 5% CO2 incubator.
(§2) To investigate the cytotoxic effect of each fraction and compounds, the MTT assay was utilized. Cells were seeded and exposed to different concentrations (0.38–25 µg/mL) of each fraction which was dissolved in DMSO. 5-fluorouracil (5-FU) was used as positive control. Untreated cells (negative control) were treated with vehicle dimethyl sulfoxide (DMSO). The final concentration of DMSO was below 0.5% v/v in all experiments. MTT (5 mg/mL) was then added to each well after treatment and incubated for another 4 h at 37 °C. Subsequently, the medium was discarded and replaced by 150 µL of DMSO to dissolve the formazan crystals followed by quantified at 570 nm and 650 nm as a background using a microplate reader (Asys UVM340, Biochrom, Eugendorf, Austria). The percentage of cell viability was calculated according to the following equation: Cell viability percentage (%) = (Absorbance of treated cells/absorbance of untreated cells) × 100%.

[2] = tested on: HCT116 human colorectal carcinoma cells; assay: MTT cytotoxicity assay on HCT116 cells; assay type: cell-based; settings: for IC50: Homo sapiens, HCT-116, HCT116, MTT; for cell viability: HCT116, 72 h, 0.39–25.0 µg/mL
Description: as §1, §2

CDK6 = assay: Western blot, CDK6 in HCT116 cells; assay type: cell-based, human; settings: HCT116, 0.75, 1.5 and 3.0 µg/mL, 24 h
Description: (§3) 1 × 10^6 HCT116 cells were plated in 60 mm^2 culture dishes and exposed to varying concentrations of DET (0.75, 1.5 and 3.0 µg/mL) for 24 h. The cells were collected, resuspended in cold RIPA buffer containing protease and phosphatase inhibitors and placed on ice for 5 min followed by centrifugation at 14,000× g for 15 min at 4 °C. 25 μg of total proteins was separated on the 12% SDS-PAGE gels and transferred onto nitrocellulose membranes, followed by the blocking using skim milk/bovine serum albumin for 1 h. Membranes were incubated with primary antibodies (cleaved PARP, cleaved caspase-3, p-p53, p21, CDK2, CDK4, CDK 6, cyclin D1, cyclin A2, cyclin B, cyclin E and GAPDH, Cell Signaling) at 4 °C overnight. Subsequently, the membranes were washed with TBST (0.05% Tween 20 in TBS) and incubated with corresponding anti-mouse/rabbit immunoglobulin G-horseradish peroxidase-conjugated secondary antibody (Cell Signaling, Danvers, MA, USA) at room temperature for 1 h. Then, the membranes were washed with TBST. The bands was detected by using enhanced chemiluminescence (ECL) detection kit (BioRad, Hercules, CA, USA) and visualized using gel documentation system. Protein bands were analyzed quantitatively and qualitatively with Vilber Lourmart.

cleaved caspase-3 = assay: Western blot, cleaved caspase-3 in HCT116 cells; assay type: cell-based, human; settings: HCT116, 0.75, 1.5 and 3.0 µg/mL, 24 h
Description: as §3

cyclin A2 = assay: Western blot, cyclin A2 in HCT116 cells; assay type: cell-based, human; settings: HCT116, 0.75, 1.5 and 3.0 µg/mL, 24 h
Description: as §3

CDK4 = assay: Western blot, CDK4 in HCT116 cells; assay type: cell-based, human; settings: HCT116, 0.75, 1.5 and 3.0 µg/mL, 24 h
Description: as §3

HCT116 cells [3] = assay: Nuclear morphological changes, Hoechst 33342/PI staining; assay type: cell-based, human; settings: HCT116, 0.75, 1.5 and 3.0 µg/mL, 24 h, dose-dependent
Description: 1 × 10^6 HCT116 cells were plated in 60 mm^2 culture dishes and treated with increasing concentrations of DET (0.75, 1.5 and 3.0 µg/mL) while negative control was treated with the vehicle DMSO for 24 h. Then, the cells were collected, washed with PBS and proceed to staining with Hoechst 33342 (40 µg/mL) and propidium iodide solution (10 µg/mL) at room temperature in the dark for 30 min. The cells were then examined by inverted fluorescence microscopy (DM1600B, Leica, Wetzlar, Germany).

cyclin D1 = assay: Western blot, cyclin D1 in HCT116 cells; assay type: cell-based, human; settings: HCT116, 0.75, 1.5 and 3.0 µg/mL, 24 h
Description: as §3

p21 = assay: Western blot, p21 in HCT116 cells; assay type: cell-based, human; settings: HCT116, 0.75, 1.5 and 3.0 µg/mL, 24 h
Description: as §3

cyclin E2 = assay: Western blot, cyclin E2 in HCT116 cells; assay type: cell-based, human; settings: HCT116, 0.75, 1.5 and 3.0 µg/mL, 24 h
Description: as §3

HCT116 cells [4] = assay: Externalization of phosphatidylserine, Annexin V-FITC/PI staining, flow cytometry; assay type: cell-based, human; settings: 24 h
Description: 1 × 10^6 HCT116 cells were plated in 60 mm^2 culture dishes and exposed to different concentrations of DET (0.75, 1.5 and 3.0 µg/mL) for 24 h. Subsequently, cells were washed with PBS, resuspended in 1× Annexin V binding buffer and stained with Annexin V-fluorescein-isothiocyanate (FITC) (BD) and propidium iodide (PI) in the dark at room temperature for 15 min. 1× binding buffer was then added into each tube. The apoptotic and necrotic cell populations were then examined by flow cytometry. The fluorescence intensity was detected in FL1-A (x-axis) and FL2-A channel (y-axis).

HCT116 cells [5] = assay: Cell cycle distribution by PI flow cytometry; assay type: cell-based, human; settings: 24 h
Description: 1 × 10^6 HCT116 cells were plated in 60 mm^2 culture dishes and exposed to different concentrations of DET (0.75, 1.5 and 3.0 µg/mL) for 24 h. The cells were harvested and centrifuged at 300× g at room temperature. The cells were then resuspended in 1 mL of buffer solution followed by centrifugation and washing with buffer solution. Subsequently, 250 µL of Solution A (trypsin buffer) was added and incubated for 10 min, followed by addition of 100 µL of Solution B (trypsin inhibitor and RNase buffer) and incubated at room temperature for 10 min. 200 µL of cold PI solution was added, gently mixed and incubated on ice for 10 min in the dark. Finally, samples were assessed by using flow cytometry (BD, San Jose, CA, USA).

CDK2 = assay: Western blot, CDK2 in HCT116 cells; assay type: cell-based, human; settings: HCT116, 0.75, 1.5 and 3.0 µg/mL, 24 h
Description: as §3

phospho-p53 = assay: Western blot, phospho-p53 in HCT116 cells; assay type: cell-based, human; settings: HCT116, 0.75, 1.5 and 3.0 µg/mL, 24 h
Description: as §3

cyclin B1 = assay: Western blot, cyclin B1 in HCT116 cells; assay type: cell-based, human; settings: HCT116, 0.75, 1.5 and 3.0 µg/mL, 24 h
Description: as §3

cleaved PARP = assay: Western blot, cleaved PARP in HCT116 cells; assay type: cell-based, human; settings: HCT116, 0.75, 1.5 and 3.0 µg/mL, 24 h
Description: as §3

[6] = CCD841-CoN normal cell line, mean ± S.E. (n = 9)
[7] = 72 h, value in brackets after the µg/mL value

O=c1[nH]cc(F)c(=O)[nH]1 [5-Fluorouracil, 5-fluorouracil, reference compound]
IC50 [1, 6]: > 25 µg/mL | IC50 ([2]; 72 h, mean ± S.E. (n = 9)): 0.73 ± 0.02 µg/mL | IC50 [2, 7]: 5 µM

C=C(C)C(=O)O[C@H]1CC2=C[C@H](C/C(C)=C/[C@H]3OC(=O)C(=C)[C@H]13)OC2=O [Isodeoxyelephantopin, isodeoxyelephantopin]
cell viability [2]: dose-dependent reduction of cell viability | IC50 ([2]; 72 h, mean ± S.E. (n = 9)): 0.88 ± 0.02 µg/mL | IC50 [2, 7]: 2.56 µM

C=C(C)C(=O)O[C@H]1CC2=C[C@@H](C/C(C)=C/[C@H]3OC(=O)C(=C)[C@H]13)OC2=O [Deoxyelephantopin, deoxyelephantopin]
CDK6 protein expression (CDK6): remain constant | cleaved caspase-3 protein expression (cleaved caspase-3): dose-dependent upregulation | cyclin A2 protein expression (cyclin A2): significant downregulation | CDK4 protein expression (CDK4): significant downregulation | apoptotic morphological changes (chromatin condensation, cell shrinkage, DNA fragmentation) (HCT116 cells [3]): apoptosis-inducing effect | cyclin D1 protein expression (cyclin D1): significant downregulation | p21 expression level (p21): upregulated | cyclin E2 protein expression (cyclin E2): significant downregulation | IC50 [1, 6]: 21.7 ± 0.92 µg/mL | IC50 ([1]; CCD841CoN normal cells, value in brackets after the µg/mL value): 60 µM | difference in cytotoxicity, CCD841CoN normal cells compared to HCT116 cells ([1]; IC50 at 72 h): 30 fold | accumulation of apoptotic cells compared to untreated control (HCT116 cells [4]; HCT116, 0.75 μg/mL): significant accumulation of apoptotic cells | proportion of apoptotic cells (early and late apoptotic phases) (HCT116 cells [4]; HCT116, 3.0 µg/mL): 63.63% ± 2.03% | necrotic cell death (HCT116 cells [4]; HCT116, 0.75–3.0 µg/mL): did not significantly induce necrotic cell death | viability at 0.75 µg/mL (HCT116 cells [4]; Homo sapiens, HCT-116, HCT116, 0.75 μg/mL, representative plot, read-out: Q1-LL cells (annexin−/PI−, viable)): 74.8% | viability at 1.5 µg/mL (HCT116 cells [4]; Homo sapiens, HCT-116, HCT116, 1.50 μg/mL, representative plot, read-out: Q1-LL cells (annexin−/PI−, viable)): 59.8% | viability at 3 µg/mL (HCT116 cells [4]; Homo sapiens, HCT-116, HCT116, 3.00 μg/mL, representative plot, read-out: Q1-LL cells (annexin−/PI−, viable)): 34.1% | cell viability [2]: dose-dependent reduction of cell viability | IC50 ([2]; 24 h): 2.36 ± 0.02 µg/mL | IC50 ([2]; 48 h): 0.9 ± 0.02 µg/mL | IC50 ([2]; 72 h, mean ± S.E. (n = 9)): 0.73 ± 0.01 µg/mL | IC50 [2, 7]: 2.12 µM | cells in the S phase (HCT116 cells [5]; HCT116, 1.5 µg/mL): 28.17% ± 0.23% | cells in the S phase (HCT116 cells [5]; HCT116, 3.0 µg/mL): 29.25% ± 0.21% | cell cycle progression (HCT116 cells [5]; HCT116, 0.75, 1.5 and 3.0 µg/mL): cell cycle arrest at S phase | CDK2 protein expression (CDK2): significant downregulation | phospho-p53 expression level (phospho-p53): upregulated | cyclin B1 protein expression (cyclin B1): significant downregulation | cleaved PARP protein expression (cleaved PARP): dose-dependent upregulation
